Measurements reported in the supplement of paper PMC10307832.

Columns and labels:
Assay in all cases: relative viability (nuclei count vs DMSO), 5 days (fraction); higher = more cells survive
QS11 + Trametinib = compound: C1CC2=C(C1)C=C(C=C2)OC3=NC(=C4C(=N3)N(C=N4)CC5=CC=C(C=C5)C6=CC=CC=C6)N[C@@H](CC7=CC=CC=C7)CO [QS11] + CC(=O)Nc1cccc(-n2c(=O)n(C3CC3)c(=O)c3c(Nc4ccc(I)cc4F)n(C)c(=O)c(C)c32)c1 [Trametinib] (partner 0.02 µM)
Outline: (§1)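 Relative viability equals treated-well nuclei counts divided by vehicle-well nuclei counts. Counts came from 4× images of lung cancer cell lines grown in 1536-well plates for 5 days after pin-tool dosing on the day after seeding. Dosing used one drug alone or a fixed anchor-drug dose plus five library-drug doses (not always all listed) in √10 steps, and values are medians of duplicate plates.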

QS11 + Crizotinib = compound: C1CC2=C(C1)C=C(C=C2)OC3=NC(=C4C(=N3)N(C=N4)CC5=CC=C(C=C5)C6=CC=CC=C6)N[C@@H](CC7=CC=CC=C7)CO [QS11] + C[C@@H](Oc1cc(-c2cnn(C3CCNCC3)c2)cnc1N)c1c(Cl)ccc(F)c1Cl [Crizotinib] (partner 1 µM)
Outline: as §1

AZ628 + Pictilisib = compound: CC1=C(C=C(C=C1)NC(=O)C2=CC(=CC=C2)C(C)(C)C#N)NC3=CC4=C(C=C3)N=CN(C4=O)C [AZ628] + CS(=O)(=O)N1CCN(Cc2cc3nc(-c4cccc5[nH]ncc45)nc(N4CCOCC4)c3s2)CC1 [Pictilisib] (partner 1 µM)
Outline: as §1

AZ628 + Olaparib = compound: CC1=C(C=C(C=C1)NC(=O)C2=CC(=CC=C2)C(C)(C)C#N)NC3=CC4=C(C=C3)N=CN(C4=O)C [AZ628] + O=C(c1cc(Cc2n[nH]c(=O)c3ccccc23)ccc1F)N1CCN(C(=O)C2CC2)CC1 [Olaparib] (partner 8 µM)
Outline: as §1

Cell Line	relative viability (QS11 + Trametinib; first compound 0.08 µM)	relative viability (QS11 + Trametinib; first compound 0.253 µM)	relative viability (QS11 + Trametinib; first compound 0.8 µM)	relative viability (QS11 + Trametinib; first compound 2.53 µM)	relative viability (QS11 + Trametinib; first compound 8 µM)	relative viability (QS11 + Crizotinib; first compound 0.08 µM)	relative viability (QS11 + Crizotinib; first compound 0.253 µM)	relative viability (QS11 + Crizotinib; first compound 0.8 µM)	relative viability (QS11 + Crizotinib; first compound 2.53 µM)	relative viability (QS11 + Crizotinib; first compound 8 µM)	relative viability (AZ628 + Pictilisib; first compound 0.08 µM)	relative viability (AZ628 + Pictilisib; first compound 0.253 µM)	relative viability (AZ628 + Pictilisib; first compound 0.8 µM)	relative viability (AZ628 + Pictilisib; first compound 2.53 µM)	relative viability (AZ628 + Pictilisib; first compound 8 µM)	relative viability (AZ628 + Olaparib; first compound 0.08 µM)	relative viability (AZ628 + Olaparib; first compound 0.253 µM)	relative viability (AZ628 + Olaparib; first compound 0.8 µM)	relative viability (AZ628 + Olaparib; first compound 2.53 µM)	relative viability (AZ628 + Olaparib; first compound 8 µM)
NCI-H2126	0.588	0.562	0.567	0.596	0.508	1.05	1	0.855	0.897	0.758	0.533	0.549	0.537	0.513	0.457	0.932	0.875	0.874	0.935	0.972
LK-2	0.702	1.03	0.778	0.81	0.841	0.25	0.221	0.215	0.266	0.214	0.577	0.824	0.443	0.481	0.311	0.874	0.549	0.684	0.689	0.309
SK-MES-1	0.519	0.557	0.451	0.507	0.527	1.12	0.98	0.993	0.977	0.929	0.337	0.372	0.28	0.327	0.329	0.693	0.824	0.9	0.737	0.392
NCI-H1944	0.423	0.4		0.349	0.353	1.13	1.43		0.91	0.834	0.359	0.321	0.322	0.29	0.321	0.416	0.42	0.411	0.329	0.365
SW 1573	0.542	0.553	0.519	0.41	0.365	0.802	0.796	0.817	0.629	0.876	0.44	0.34	0.367	0.335	0.27	0.462	0.423	0.365	0.374	0.346
PC-14		0.66	0.698	0.717	0.634	0.851	0.896	0.871	0.848	0.911	0.617	0.627	0.738	0.808	0.237	0.376	0.258	0.243	0.259	0.16
LC-2-ad	0.906	0.985	0.606	0.843	0.962	0.468	0.479	0.398	0.443	0.495	0.472	0.344	0.122	0.261	0.162	0.712	0.646	0.823	0.736	0.681
201T	0.729	0.739	0.566	0.704	0.61	1.04	1.07	0.778	1.03	0.947	0.688	0.659	0.691	0.71	0.723	0.909	0.865	0.908	0.868	0.926
NCI-H2023	0.616	0.57	0.661	0.68	0.597	0.774	0.537	0.586	0.641	0.648	0.218	0.23	0.236	0.196	0.202	0.452	0.427	0.522	0.508	0.433
HOP-62	0.373	0.393	0.38	0.357	0.42	0.853	0.863	0.846	0.703	0.45	0.607	0.6	0.511	0.441	0.211	0.543	0.359	0.633	0.68	0.39
NCI-H661	0.624	0.594	0.473	0.46	0.477	0.887	1.08	0.753	0.872	0.985	0.401	0.312	0.302	0.353	0.331	0.748	0.702	0.699	0.727	0.644
NCI-H1734	0.645	0.626	0.648	0.546	0.565	0.65	0.656	0.658	0.555	0.619	0.432	0.359	0.351	0.367	0.306	0.684	0.584	0.516	0.6	0.382
EKVX	0.288	0.618	0.3	0.306	0.321	1.13	1.03		0.749	1.2	0.487	0.489	0.471	0.472	0.333	0.926	0.768	0.947	0.914	0.79
NCI-H1355	0.447	0.342	0.378	0.378	0.433	0.99	1.58	0.823	0.915	0.972	0.454	0.395	0.404	0.34	0.285	0.73	0.784	0.684	0.745	0.574
NCI-H1650	0.459	0.667	0.366	0.751	0.552	0.994	0.843	0.868	0.986	0.894	0.741	0.604	0.614	0.5	0.342	0.839	0.866	0.847	0.766	0.909
H3255	0.577	0.703		0.631	0.585	0.869	0.973		1.02	0.847	0.457	0.499	0.463	0.398	0.225	0.561	0.557	0.596	0.611	0.427
